Data published in ChEMBL document CHEMBL5518244, “Design, Synthesis, and Biological Evaluation of a Novel NIK Inhibitor with Anti-Inflammatory and Hepatoprotective Effects for Sepsis Treatment” (J Med Chem, 2024).
Activity calls are given as the source filed them. The rule behind the calls is not given here.

How the values were obtained:
[1] = tested on: RAW264.7; experiment: Anti-inflammatory activity in mouse RAW264.7 cells assessed as suppression of LPS/CD40-induced TNFalpha secretion at 5 uM pretreated for 2 hrs followed stimulated with LPS/CD40 for 22 hrs by ELISA; type: functional, cell-based; details: time 24.0 hrs
[2] = tested on: Mus musculus; experiment: Antisepsis effect in LPS-induced sepsis C57BL/6J mouse model assessed as prevention of kidney injury at 10 mg/kg, ip measured after 7 days by hematoxylin and eosin staining based assay; type: functional, organism-based; details: time 7.0 day
[3] = Tmax in C57BL/6J mouse at 10 mg/kg, po measured upto 24 hrs by LC-MS/MS analysis; type: ADME, organism-based; details: in vivo
[4] = tested on: RAW264.7; experiment: Anti-inflammatory activity in mouse RAW264.7 cells assessed as suppression of LPS/CD40-induced IL-1beta secretion at 5 uM pretreated for 2 hrs followed stimulated with LPS/CD40 for 22 hrs by ELISA; type: functional, cell-based; details: time 24.0 hrs
[5] = tested on: Mus musculus; experiment: Antisepsis effect in LPS-induced sepsis C57BL/6J mouse model assessed as decrease in serum IFN-gamma level at 10 mg/kg, ip measured after 7 days by ELISA; type: functional, organism-based; details: time 7.0 day
[6] = Metabolic stability in mouse liver microsomes assessed as intrinsic clearance at 1 uM measured upto 60 mins by LC-MS/MS analysis; type: ADME, Microsome; details: read-out: CLH
[7] = Half life in C57BL/6J mouse at 10 mg/kg, iv measured upto 24 hrs by LC-MS/MS analysis; type: ADME, organism-based; details: in vivo
[8] = tested on: RAW264.7; experiment: Anti-inflammatory activity in mouse RAW264.7 cells assessed as suppression of LPS/CD40-induced IL-6 secretion at 5 uM pretreated for 2 hrs followed stimulated with LPS/CD40 for 22 hrs by ELISA; type: functional, cell-based; details: time 24.0 hrs
[9] = Metabolic stability in rat liver microsomes assessed as half life at 1 uM measured upto 60 mins by LC-MS/MS analysis; type: ADME, Microsome
[10] = tested on: RAW264.7; experiment: Cytotoxicity against mouse RAW264.7 cells assessed as cell viability at 1 uM by CCK8 assay; type: toxicity, cell-based; details: raw264.7, 1 µM
[11] = tested on: Mus musculus; experiment: Antisepsis effect in LPS-induced sepsis C57BL/6J mouse model assessed as prevention of necrosis in liver tissue at 10 mg/kg, ip measured after 7 days by hematoxylin and eosin staining based assay; type: functional, organism-based; details: time 7.0 day
[12] = Metabolic stability in mouse liver microsomes assessed as half life at 1 uM measured upto 60 mins by LC-MS/MS analysis; type: ADME, Microsome
[13] = tested on: Mus musculus; experiment: Antisepsis effect in LPS-induced sepsis C57BL/6J mouse model assessed as decrease in serum TNFalpha level at 10 mg/kg, ip measured after 7 days by ELISA; type: functional, organism-based; details: time 7.0 day
[14] = tested on: Mus musculus; experiment: Inhibition of noncanonical NF-kappaB signaling pathway LPS-induced sepsis C57BL/6J mouse model assessed as increase in p100 protein level at 10 mg/kg, ip measured after 7 days by immunoblotting analysis; type: functional, organism-based; details: time 7.0 day
[15] = Metabolic stability in rat liver microsomes assessed as intrinsic clearance at 1 uM measured upto 60 mins by LC-MS/MS analysis; type: ADME, Microsome; details: read-out: CLH
[16] = AUClast in C57BL/6J mouse at 10 mg/kg, iv measured upto 24 hrs by LC-MS/MS analysis; type: ADME, organism-based; details: in vivo
[17] = target: T1, Mitogen-activated protein kinase kinase kinase 14 (Homo sapiens, UniProt Q99558); experiment: Inhibition of NIK (unknown origin) expressed in COS-7 cells co-expressing NF-KappaB luciferase reporter assessed as suppression of luciferase reporter measured after 24 by beta-Gal activity assay; type: cell-based
[18] = target: T1, Mitogen-activated protein kinase kinase kinase 14; experiment: Inhibition of NIK (unknown origin) incubated 30 to 60 mins by ADP-Glo Kinase
[19] = tested on: Mus musculus; experiment: Antisepsis effect in LPS-induced sepsis C57BL/6J mouse model assessed as protection by measuring mouse survival at 10 mg/kg, ip measured at 48 hrs relative to control; type: functional, organism-based
[20] = tested on: Mus musculus; experiment: Antisepsis effect in LPS-induced sepsis C57BL/6J mouse model assessed as prevention of infiltration of inflammatory cells at 10 mg/kg, ip measured after 7 days by immunohistochemistry staining of F4/80 imaging based assay; type: functional, organism-based; details: time 7.0 day
[21] = tested on: Mus musculus; experiment: Antisepsis effect in LPS-induced sepsis C57BL/6J mouse model assessed as prevention of liver injury by measuring decrease in serum AST level at 10 mg/kg, ip measured after 7 days by biochemical assay; type: functional, organism-based; details: time 7.0 day
[22] = tested on: Mus musculus; experiment: Antisepsis effect in LPS-induced sepsis C57BL/6J mouse model assessed as protection by measuring mouse survival at 10 mg/kg, ip measured after 7 days relative to control; type: functional, organism-based; details: time 7.0 day
[23] = tested on: Mus musculus; experiment: Antisepsis effect in LPS-induced sepsis C57BL/6J mouse model assessed as prevention of lung injury at 10 mg/kg, ip measured after 7 days by hematoxylin and eosin staining based assay; type: functional, organism-based; details: time 7.0 day
[24] = Cmax in C57BL/6J mouse at 10 mg/kg, po measured upto 24 hrs by LC-MS/MS analysis; type: ADME, organism-based; details: in vivo
[25] = tested on: Macrophage; experiment: Anti-inflammatory activity in mouse macrophages extracted from abdominal activity assessed as inhibition of LPS-induced nitric oxide production at 1 uM measured after 22 hrs by Griess reagent assay relative to control; type: functional, cell-based
[26] = Half life in C57BL/6J mouse at 10 mg/kg, po measured upto 24 hrs by LC-MS/MS analysis; type: ADME, organism-based; details: in vivo
[27] = tested on: Mus musculus; experiment: Antisepsis effect in LPS-induced sepsis C57BL/6J mouse model assessed as prevention of liver injury by measuring decrease in serum AKP level at 10 mg/kg, ip measured after 7 days by biochemical assay; type: functional, organism-based; details: time 7.0 day
[28] = tested on: Mus musculus; experiment: Antisepsis effect in LPS-induced sepsis C57BL/6J mouse model assessed as decrease in serum IL-6 level at 10 mg/kg, ip measured after 7 days by ELISA; type: functional, organism-based; details: time 7.0 day
[29] = tested on: COS-7; experiment: Cytotoxicity against African green monkey COS-7 cells assessed as cell viability at 1 uM by CCK8 assay; type: toxicity, cell-based; details: chlorocebus aethiops, cos-7, 1 µM
[30] = tested on: Mus musculus; experiment: Antisepsis effect in LPS-induced sepsis C57BL/6J mouse model assessed as prevention of tubular injury at 10 mg/kg, ip measured after 7 days by hematoxylin and eosin staining based assay; type: functional, organism-based; details: time 7.0 day
[31] = tested on: Mus musculus; experiment: Antisepsis effect in LPS-induced sepsis C57BL/6J mouse model assessed as prevention of liver injury by measuring decrease in serum ALT level at 10 mg/kg, ip measured after 7 days by biochemical assay; type: functional, organism-based; details: time 7.0 day
[32] = tested on: Mus musculus; experiment: Antisepsis effect in LPS-induced sepsis C57BL/6J mouse model assessed as decrease in serum CXCL-12 level at 10 mg/kg, ip measured after 7 days by ELISA; type: functional, organism-based; details: time 7.0 day
[33] = tested on: RAW264.7; experiment: Cytotoxicity against mouse RAW264.7 cells assessed as cell viability at 5 uM by CCK8 assay; type: toxicity, cell-based; details: raw264.7, 5 µM
[34] = tested on: COS-7; experiment: Cytotoxicity against African green monkey COS-7 cells assessed as cell viability at 5 uM by CCK8 assay; type: toxicity, cell-based; details: chlorocebus aethiops, cos-7, 5 µM
[35] = tested on: Mus musculus; experiment: Antisepsis effect in LPS-induced sepsis C57BL/6J mouse model assessed as decrease in serum IL-1beta level at 10 mg/kg, ip measured after 7 days by ELISA; type: functional, organism-based; details: time 7.0 day
[36] = target: Mitogen-activated protein kinase 8 (Homo sapiens, UniProt P45983); experiment: Inhibition of JNK1 (unknown origin) by ADP-Glo Kinase assay
[37] = AUCinf in C57BL/6J mouse at 10 mg/kg, po measured upto 24 hrs by LC-MS/MS analysis; type: ADME, organism-based; details: in vivo
[38] = Clearance in C57BL/6J mouse at 10 mg/kg, iv measured upto 24 hrs by LC-MS/MS analysis; type: ADME, organism-based; details: in vivo
[39] = Initial plasma concentration in C57BL/6J mouse at 10 mg/kg, iv measured upto 24 hrs by LC-MS/MS analysis; type: ADME, organism-based
[40] = AUClast in C57BL/6J mouse at 10 mg/kg, po measured upto 24 hrs by LC-MS/MS analysis; type: ADME, organism-based; details: in vivo
[41] = AUCinf in C57BL/6J mouse at 10 mg/kg, iv measured upto 24 hrs by LC-MS/MS analysis; type: ADME, organism-based; details: in vivo
[42] = tested on: Mus musculus; experiment: Inhibition of noncanonical NF-kappaB signaling pathway LPS-induced sepsis C57BL/6J mouse model assessed as decrease in p52 protein level at 10 mg/kg, ip measured after 7 days by immunoblotting analysis; type: functional, organism-based; details: time 7.0 day
[43] = target: AMP-activated protein kinase (AMPK) alpha-1/beta-1/gamma-1 (Homo sapiens, UniProt P54619+Q13131+Q9Y478); experiment: Inhibition of AMPKalpha1/beta1/gamma1 (unknown origin) by ADP-Glo Kinase assay; type: protein-complex assay
Chain of AMP-activated protein kinase (AMPK) alpha-1/beta-1/gamma-1 (P54619 whole entry): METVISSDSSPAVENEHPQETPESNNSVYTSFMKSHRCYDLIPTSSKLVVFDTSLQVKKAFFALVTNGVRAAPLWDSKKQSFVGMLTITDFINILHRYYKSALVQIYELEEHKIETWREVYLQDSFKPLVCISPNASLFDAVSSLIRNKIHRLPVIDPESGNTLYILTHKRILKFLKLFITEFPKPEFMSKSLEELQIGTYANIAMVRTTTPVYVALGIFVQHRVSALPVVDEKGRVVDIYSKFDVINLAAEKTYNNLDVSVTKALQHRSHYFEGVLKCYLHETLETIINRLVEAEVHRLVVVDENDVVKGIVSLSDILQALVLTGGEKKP
Chain of AMP-activated protein kinase (AMPK) alpha-1/beta-1/gamma-1 (Q9Y478 whole entry): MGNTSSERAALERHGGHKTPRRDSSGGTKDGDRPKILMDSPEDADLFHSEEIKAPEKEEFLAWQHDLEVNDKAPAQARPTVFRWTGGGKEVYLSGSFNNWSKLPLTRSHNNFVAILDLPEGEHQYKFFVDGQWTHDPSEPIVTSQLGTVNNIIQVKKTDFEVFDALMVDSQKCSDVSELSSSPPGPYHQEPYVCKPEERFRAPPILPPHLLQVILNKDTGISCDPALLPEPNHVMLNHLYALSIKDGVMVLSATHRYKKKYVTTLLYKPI
Chain of AMP-activated protein kinase (AMPK) alpha-1/beta-1/gamma-1 (Q13131 whole entry): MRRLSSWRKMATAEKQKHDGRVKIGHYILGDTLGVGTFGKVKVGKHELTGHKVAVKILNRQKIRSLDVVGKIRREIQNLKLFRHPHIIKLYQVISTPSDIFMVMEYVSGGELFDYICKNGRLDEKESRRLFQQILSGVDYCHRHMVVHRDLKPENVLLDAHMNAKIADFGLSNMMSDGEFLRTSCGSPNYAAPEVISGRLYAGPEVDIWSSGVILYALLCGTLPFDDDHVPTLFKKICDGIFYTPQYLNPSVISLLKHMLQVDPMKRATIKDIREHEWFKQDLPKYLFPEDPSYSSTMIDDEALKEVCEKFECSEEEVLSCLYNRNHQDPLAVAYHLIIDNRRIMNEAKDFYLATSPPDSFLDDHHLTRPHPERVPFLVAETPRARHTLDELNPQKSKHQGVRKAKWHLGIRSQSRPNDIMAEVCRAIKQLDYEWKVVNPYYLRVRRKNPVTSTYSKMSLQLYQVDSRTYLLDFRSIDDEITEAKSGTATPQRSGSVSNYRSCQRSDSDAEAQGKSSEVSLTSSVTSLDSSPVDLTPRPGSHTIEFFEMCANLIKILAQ

T1 sequence (Q99558 whole entry): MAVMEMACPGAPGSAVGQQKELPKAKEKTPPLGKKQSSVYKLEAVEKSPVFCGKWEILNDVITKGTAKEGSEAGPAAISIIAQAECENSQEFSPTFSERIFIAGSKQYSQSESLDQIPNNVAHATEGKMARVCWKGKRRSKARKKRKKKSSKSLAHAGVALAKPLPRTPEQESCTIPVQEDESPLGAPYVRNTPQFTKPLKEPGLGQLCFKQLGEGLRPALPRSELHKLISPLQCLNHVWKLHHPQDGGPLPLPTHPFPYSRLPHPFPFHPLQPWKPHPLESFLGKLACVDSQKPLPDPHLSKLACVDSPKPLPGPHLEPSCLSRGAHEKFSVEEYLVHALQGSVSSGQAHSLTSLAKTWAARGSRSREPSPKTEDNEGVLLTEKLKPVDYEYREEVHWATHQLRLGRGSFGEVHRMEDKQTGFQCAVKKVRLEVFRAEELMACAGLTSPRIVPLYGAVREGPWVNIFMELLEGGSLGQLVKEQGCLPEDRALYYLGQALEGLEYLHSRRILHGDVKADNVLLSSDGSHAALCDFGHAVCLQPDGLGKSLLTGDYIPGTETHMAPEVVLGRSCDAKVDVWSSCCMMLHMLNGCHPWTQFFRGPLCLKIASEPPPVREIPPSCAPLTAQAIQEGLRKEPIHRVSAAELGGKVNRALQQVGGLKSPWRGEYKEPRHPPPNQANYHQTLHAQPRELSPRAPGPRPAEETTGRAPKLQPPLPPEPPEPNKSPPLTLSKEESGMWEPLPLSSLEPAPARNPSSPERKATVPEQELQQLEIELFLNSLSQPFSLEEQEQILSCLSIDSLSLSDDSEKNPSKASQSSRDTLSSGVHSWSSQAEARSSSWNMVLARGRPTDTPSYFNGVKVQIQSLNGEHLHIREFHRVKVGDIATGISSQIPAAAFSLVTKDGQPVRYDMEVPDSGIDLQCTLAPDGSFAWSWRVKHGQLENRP
Chain of Mitogen-activated protein kinase 8 (P45983 whole entry): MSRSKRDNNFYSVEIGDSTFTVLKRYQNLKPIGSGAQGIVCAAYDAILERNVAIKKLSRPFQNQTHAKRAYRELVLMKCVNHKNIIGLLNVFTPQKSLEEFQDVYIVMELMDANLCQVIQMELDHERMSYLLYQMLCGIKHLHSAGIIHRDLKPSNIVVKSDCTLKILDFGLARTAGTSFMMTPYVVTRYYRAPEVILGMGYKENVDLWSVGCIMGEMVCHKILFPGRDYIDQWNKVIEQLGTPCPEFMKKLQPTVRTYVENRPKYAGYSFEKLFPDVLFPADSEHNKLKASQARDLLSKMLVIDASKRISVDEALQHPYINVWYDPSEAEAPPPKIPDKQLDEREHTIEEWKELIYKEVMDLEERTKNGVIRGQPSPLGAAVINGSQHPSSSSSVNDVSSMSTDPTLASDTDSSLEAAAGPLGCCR

Q: Which Activity [1] does the source give for `COc1cc(Nc2nccc(N3CCCn4nc(C#C[C@@](C)(O)c5nccs5)cc43)n2)cc(OC)c1` here?
A: Active

Q: And the Activity [2]?
A: Active

Q: And the Tmax [3]?
A: 30 min

Q: What about the Activity [4] of the same molecule?
A: Active

Q: What about the Activity [5] of the same molecule?
A: Active

Q: What about the microsomal CLint at 1 µM [6] of the same molecule?
A: 71 µL/min/mg

Q: What about the half-life [7] of the same molecule?
A: 44.5 min

Q: What about the Activity [8] of the same molecule?
A: Active

Q: And the half-life at 1 µM [9]?
A: 25.9 min

Q: What about the Activity [10] of the same molecule?
A: Non-Toxic

Q: And the Activity [11]?
A: Active

Q: What about the half-life at 1 µM [12] of the same molecule?
A: 19.5 min

Q: What about the Activity [13] of the same molecule?
A: Active

Q: And the Activity [14]?
A: Active

Q: What about the microsomal CLint at 1 µM [15] of the same molecule?
A: 53.6 µL/min/mg

Q: What about the AUC(0-t) at 24 h [16] of the same molecule?
A: 3020 ng·h/mL

Q: And the IC50 [17]?
A: 1.19 µM

Q: And the IC50 [18]?
A: 0.00127 µM

Q: And the Activity [19]?
A: Active

Q: What about the Activity [20] of the same molecule?
A: Active

Q: What about the Activity [21] of the same molecule?
A: Active

Q: What about the Activity [22] of the same molecule?
A: Active

Q: And the Activity [23]?
A: Active

Q: And the Cmax [24]?
A: 1280 ng/mL

Q: What about the IC50 [25] of the same molecule?
A: 78.1 µM

Q: And the half-life [26]?
A: 136 min

Q: And the Activity [27]?
A: Active

Q: What about the Activity [28] of the same molecule?
A: Active

Q: What about the Activity [29] of the same molecule?
A: Non-Toxic

Q: And the Activity [30]?
A: Active

Q: What about the Activity [31] of the same molecule?
A: Active

Q: And the Activity [32]?
A: Active

Q: What about the Activity [33] of the same molecule?
A: Non-Toxic

Q: What about the Activity [34] of the same molecule?
A: Non-Toxic

Q: What about the Activity [35] of the same molecule?
A: Active

Q: What about the IC50 [36] of the same molecule?
A: 541 µM

Q: And the AUC(0-inf) [37]?
A: 2550 ng·h/mL

Q: And the clearance [38]?
A: 56.2 mL/min/kg

Q: And the C0 at 24 h [39]?
A: 5060 ng/mL

Q: What about the AUC(0-t) at 24 h [40] of the same molecule?
A: 2520 ng·h/mL

Q: And the AUC(0-inf) [41]?
A: 3020 ng·h/mL

Q: What about the Activity [42] of the same molecule?
A: Active

Q: What about the IC50 [43] of the same molecule?
A: 288 µM
